Measured values: patent publication US20060068455A1, “GABA detection methods and applications” (priority 2004, published 2006)

Tested on: rat brain tissue
Assay: Real-time fluorescence detection of Ca^2+-dependent GABA release from rat neural tissue on GABA-T/SSADH sensor
Type: cell-based
Description: Adult Sprague-Dawley rats about 160 grams each were injected with an overdose of Nembutal. The brains or spinal cords were removed and washed several times with PBS and then embedded with 5% low melting temperature agarose (NuSieve® GAG® agarose, FMC BioProducts, Me.). The embedded brains or spinal cords were cut with a Vibratome (VT10003, LEICA Microsystems, Germany) in 300 μm tissue sections. Each tissue section was placed on a GABA-T/SSADH fluorometric silica glass sensor and then GABA released from the tissue sections were measured with Fluoroskan Ascent (Labsystems, Finland).
The silica glass sensors of the present invention may be used to assay neural tissue and agents which affect neural tissue. […] Neural tissue, […], was cultured on GABA-T/SSADH sensors prepared inside tissue culture vessels. […] Therefore, GABA release is stimulated by Ca^2+.
The effect of various agents on GABA release in rat neural tissue were assayed in real-time with a GABA-T/SSADH sensor. The agents tested were 2-APB (a cell-permeable IP3 receptor antagonist), Thapsigargin (a blocker of store-specific Ca^2+-ATPase), Ryanodine and caffeine (increase internal Ca^2+ level), and KN-93 (CAM kinase II inhibitor).
FIGS. 10 and 11 show the effect of Thapsigargin and Ryanodine on Ca^2+-dependent GABA release, respectively. Therefore, the silica glass sensors of the present invention may be used for assaying the effect of various agents on cells and tissues cultured thereon.

Compound | less GABA release (75 μM 2-APB without 10 mM CaCl2 compared with 75 μM 2-APB with 10 mM CaCl2, FIG. 9) | effect on Ca^2+-dependent GABA release (75 μM 2-APB, rat neural tissue, FIG. 9) | GABA release versus controls (100 mM Ca^2+, rat brain tissue, FIG. 8)
NCCOB(c1ccccc1)c1ccccc1 [2-APB] | about 41.9% | inhibits Ca^2+-dependent GABA release | 
[Ca+2].[Cl-].[Cl-] [Ca^2+] |  |  | released more GABA than controls
